According to US8999970B2, “Administration of an anti-obesity compound to individuals with renal impairment” (Arena Pharmaceuticals, Inc., priority 2010, dated 2015):
Entries after “also recorded” stand apart in the source; their conditions may differ.

Tests used:
[1] = Preclinical toxicology: M1 and M5 pharmacokinetics after oral administration of lorcaserin, 52 wk, rats
[2] = Modeled steady state exposures following lorcaserin 10 mg BID (simulations and noncompartmental analysis from QD data); settings: for AUC24 hr / Cmax / t1/2: 10 mg BID Simulation, Steady State
Method: To better assess the potential implications of M1 and M5 levels in patients, steady state exposures (i.e. the state of equilibrium obtained at the end of a certain number of dosings) following lorcaserin 10 mg twice daily (BID) dosing were modeled using simulations and noncompartmental analysis based on data from pharmacokinetic studies with once daily (QD) dosing.
To better assess the potential implications of M1 levels in subjects with renal impairment, steady state M1 exposure following lorcaserin 10 mg BID administration was modeled using simulations and noncompartmental analysis based upon data from pharmacokinetic studies with once daily (QD) dosing. This modeling is discussed below in Example 5.
To better assess the potential implications of M1 and M5 levels, steady state exposures following lorcaserin 10 mg BID dosing were modeled using simulations and noncompartmental analysis based upon data from pharmacokinetic studies with once daily (QD) dosing.

[3] = Preclinical toxicology: M1 and M5 pharmacokinetics after oral administration of lorcaserin, 52 wk, mice
[4] = test system: panel of receptors, ion channels and transporters; test: Pharmacological activity of metabolites at a panel of receptors, ion channels and transporters
[5] = Toxicity studies in rats (determination of NOAEL); format: in vivo; settings: for Exposure multiple relative to human exposure at 10 mg BID: rats 5 mg/kg/day (NOAEL); for Exposure multiple of human exposure at 10 mg BID: rats 50 mg/kg/day for 6 months
Method: In rats, a single 1000 mg/kg dose caused death. […] The highest dose tested in 28-day studies, 50 mg/kg/day, was associated with increased serum lipids, centrilobular hepatocellular hypertrophy, splenic extramedullary hematopoiesis, increased pigmented macrophages, and reticulocytosis, and increased kidney weights, with minimal renal tubular epithelial hyperplasia in males only. A 13-week study and a 6-month study gave similar findings except there was no renal tubular epithelial changes and increases in kidney weights were limited to the 3-month study; the NOAEL was 5 mg/kg/day, which produced exposure multiples of 1.2 and 2.8 (males and females) relative to human exposure at a dose of 10 mg BID.
In rats but not mice, modest increases in kidney weights were reported at high dose (≧50 mg/kg) in the 10-day, 28-day and 3-month studies, but were without microscopic correlate except in the 28-day study, in which minimal renal tubular epithelial hypertrophy was reported in male rats. In the one year toxicology study in monkeys, minimal to moderate focal tubular epithelial degeneration and/or regeneration were observed. The potential clinical relevance of this finding was evaluated in two ways. First, two pathologists with expertise in human renal pathology (Helmut Rennke, M.D. and Stephen Bonsib, M.D.) independently reviewed all monkey kidney slides from the 1-year study in a blinded manner. Both reported the findings to be mild and focal, clinically unimportant, without dose relationship, and more likely related to aging, infection, or inflammation than to study drug. Secondly, renal function was monitored in clinical trials not only by measuring creatinine and BUN, but also by examining urine sediment and by calculating creatinine clearance. The urine sediment data are of limited value due to the preponderance of “dirty” urine specimens contaminated with epithelial cells and other external debris. Neither BUN nor creatinine was affected by lorcaserin. Creatinine clearance, which was calculated using both actual body weight and the preferred ideal body weight method, was also not affected by lorcaserin use of up to 2 years.

[6] = lorcaserin 10 mg/kg/day oral, F
[7] = lorcaserin 10 mg/kg/day oral, M
[8] = lorcaserin 30 mg/kg/day oral, F
[9] = lorcaserin 30 mg/kg/day oral, M
[10] = lorcaserin 100 mg/kg/day oral, F
[11] = lorcaserin 100 mg/kg/day oral, M
[12] = lorcaserin 25 mg/kg/day oral, F
[13] = lorcaserin 25 mg/kg/day oral, M
[14] = lorcaserin 50 mg/kg/day oral, F
[15] = lorcaserin 50 mg/kg/day oral, M

SMILES: C[C@H]1CN(S(=O)(=O)O)CCc2ccc(Cl)cc21 [Compound M1, lorcaserin sulfamate]
- AUC0-inf [1, 6]: 200 µg·h/mL
- AUClast [1, 6]: 193 µg·h/mL
- Cmax [1, 6]: 16.3 µg/mL
- tmax [1, 6]: 1.0 h
- AUC0-inf [1, 7]: 175 µg·h/mL
- AUClast [1, 7]: 170 µg·h/mL
- Cmax [1, 7]: 15.4 µg/mL
- tmax [1, 7]: 1.0 h
- AUC0-inf [1, 8]: 443 µg·h/mL
- AUClast [1, 8]: 412 µg·h/mL
- Cmax [1, 8]: 31.7 µg/mL
- tmax [1, 8]: 4.0 h
- AUC0-inf [1, 9]: 338 µg·h/mL
- AUClast [1, 9]: 319 µg·h/mL
- Cmax [1, 9]: 23.9 µg/mL
- tmax [1, 9]: 1.0 h
- AUC0-inf [1, 10]: 1480 µg·h/mL
- AUClast [1, 10]: 1050 µg·h/mL
- Cmax [1, 10]: 63.7 µg/mL
- tmax [1, 10]: 2.0 h
- AUC0-inf [1, 11]: 927 µg·h/mL
- AUClast [1, 11]: 633 µg·h/mL
- Cmax [1, 11]: 36.0 µg/mL
- tmax [1, 11]: 0.5 h
- AUC24 hr ([2]; Mild): 4620 ng·h/mL
- Cmax ([2]; Mild): 207 ng/mL
- t1/2 ([2]; Mild): 34.6 h
- AUC24 hr ([2]; Moderate): 9670 ng·h/mL
- Cmax ([2]; Moderate): 414 ng/mL
- t1/2 ([2]; Moderate): 109 h
- AUC24 hr ([2]; Normal): 2790 ng·h/mL
- Cmax ([2]; Normal): 130 ng/mL
- t1/2 ([2]; Normal): 30.0 h
- AUC24 hr ([2]; Severe): 25,500 hr · ng/mL
- Cmax ([2]; Severe): 1090 ng/mL
- t1/2 ([2]; Severe): 99.2 h
- Level some individuals with severe renal impairment might reach at steady state ([2]; five times the modeled mean of 1090 ng/mL): over 5000 ng/mL; also recorded: more than 5000 ng/mL
- AUC0-inf ([3]; lorcaserin 5 mg/kg/day oral, F): 75.2 µg·h/mL
- AUClast ([3]; lorcaserin 5 mg/kg/day oral, F): 74.4 µg·h/mL
- Cmax ([3]; lorcaserin 5 mg/kg/day oral, F): 14.4 µg/mL
- tmax ([3]; lorcaserin 5 mg/kg/day oral, F): 30 min
- AUC0-inf ([3]; lorcaserin 5 mg/kg/day oral, M): 61.2 µg·h/mL
- AUClast ([3]; lorcaserin 5 mg/kg/day oral, M): 59.7 µg·h/mL
- Cmax ([3]; lorcaserin 5 mg/kg/day oral, M): 10.8 µg/mL
- tmax ([3]; lorcaserin 5 mg/kg/day oral, M): 30 min
- AUC0-inf [3, 12]: 221 µg·h/mL
- AUClast [3, 12]: 217 µg·h/mL
- Cmax [3, 12]: 39.8 µg/mL
- tmax [3, 12]: 30 min
- AUClast [3, 13]: 223 µg·h/mL
- Cmax [3, 13]: 25.4 µg/mL
- tmax [3, 13]: 30 min
- AUC0-inf [3, 14]: 356 µg·h/mL
- AUClast [3, 14]: 345 µg·h/mL
- Cmax [3, 14]: 49.1 µg/mL
- tmax [3, 14]: 30 min
- AUC0-inf [3, 15]: 319 µg·h/mL
- AUClast [3, 15]: 308 µg·h/mL
- Cmax [3, 15]: 42.7 µg/mL
- tmax [3, 15]: 30 min
- Activity at serotonin receptors or at a panel of more than 60 GPCRs, transporters and ion channels [4]: neither metabolite is active
- Pharmacological activity against a panel of receptors, ion channels and transporters ([4]; concentration of 10 μM): pharmacologically inactive

SMILES: C[C@H]1CN(C(=O)O[C@@H]2O[C@H](C(=O)O)[C@@H](O)[C@H](O)[C@H]2O)CCc2ccc(Cl)cc21 [Compound M5, N-carbamoyl glucuronide of lorcaserin]
- AUC0-inf [1, 6]: 0.349 µg·h/mL
- AUClast [1, 6]: 0.273 µg·h/mL
- Cmax [1, 6]: 0.0538 µg/mL
- tmax [1, 6]: 0.5 h
- AUC0-inf [1, 7]: 0.602 µg·h/mL
- AUClast [1, 7]: 0.550 µg·h/mL
- Cmax [1, 7]: 0.178 µg/mL
- tmax [1, 7]: 1.0 h
- AUC0-inf [1, 8]: 1.96 µg·h/mL
- AUClast [1, 8]: 1.62 µg·h/mL
- Cmax [1, 8]: 0.337 µg/mL
- tmax [1, 8]: 1.0 h
- AUC0-inf [1, 9]: 3.1 µg·h/mL
- AUClast [1, 9]: 3.07 µg·h/mL
- Cmax [1, 9]: 0.559 µg/mL
- tmax [1, 9]: 0.5 h
- AUC0-inf [1, 10]: 12.8 µg·h/mL
- AUClast [1, 10]: 11.1 µg·h/mL
- Cmax [1, 10]: 1.20 µg/mL
- tmax [1, 10]: 2.0 h
- AUC0-inf [1, 11]: 16.5 µg·h/mL
- AUClast [1, 11]: 14.9 µg·h/mL
- Cmax [1, 11]: 2.03 µg/mL
- tmax [1, 11]: 0.5 h
- AUC24 hr ([2]; ESRD): 20100 ng·h/mL
- Cmax ([2]; ESRD): 936 ng/mL
- t1/2 ([2]; ESRD): 22.9 h
- AUC24 hr ([2]; Mild): 1090 ng·h/mL
- Cmax ([2]; Mild): 78.1 ng/mL
- t1/2 ([2]; Mild): 5.41 h
- AUC24 hr ([2]; Moderate): 2150 ng·h/mL
- Cmax ([2]; Moderate): 141 ng/mL
- t1/2 ([2]; Moderate): 9.83 h
- AUC24 hr ([2]; Normal): 765 ng·h/mL
- Cmax ([2]; Normal): 77.3 ng/mL
- t1/2 ([2]; Normal): 6.11 h
- AUC24 hr ([2]; Severe): 4260 ng·h/mL
- Cmax ([2]; Severe): 223 ng/mL
- t1/2 ([2]; Severe): 11.0 h
- AUC0-inf ([3]; lorcaserin 5 mg/kg/day oral, F): 0.201 µg·h/mL
- AUClast ([3]; lorcaserin 5 mg/kg/day oral, F): 0.184 µg·h/mL
- Cmax ([3]; lorcaserin 5 mg/kg/day oral, F): 0.100 µg/mL
- tmax ([3]; lorcaserin 5 mg/kg/day oral, F): 30 min
- AUC0-inf ([3]; lorcaserin 5 mg/kg/day oral, M): 0.178 µg·h/mL
- AUClast ([3]; lorcaserin 5 mg/kg/day oral, M): 0.134 µg·h/mL
- Cmax ([3]; lorcaserin 5 mg/kg/day oral, M): 0.0983 µg/mL
- tmax ([3]; lorcaserin 5 mg/kg/day oral, M): 30 min
- AUClast [3, 12]: 1.21 µg·h/mL
- Cmax [3, 12]: 0.431 µg/mL
- tmax [3, 12]: 30 min
- AUClast [3, 13]: 1.84 µg·h/mL
- Cmax [3, 13]: 0.590 µg/mL
- tmax [3, 13]: 30 min
- AUC0-inf [3, 14]: 3.26 µg·h/mL
- AUClast [3, 14]: 3.23 µg·h/mL
- Cmax [3, 14]: 0.824 µg/mL
- tmax [3, 14]: 30 min
- AUC0-inf [3, 15]: 3.47 µg·h/mL
- AUClast [3, 15]: 3.42 µg·h/mL
- Cmax [3, 15]: 1.00 µg/mL
- tmax [3, 15]: 30 min
- Activity at serotonin receptors or at a panel of more than 60 GPCRs, transporters and ion channels [4]: neither metabolite is active
- Pharmacological activity at all receptors, transporters and ion channels tested to date [4]: pharmacologically inactive

SMILES: C[C@H]1CNCCc2ccc(Cl)cc21 [Lorcaserin, (R)-8-chloro-1-methyl-2,3,4,5-tetrahydro-1H-3-benzazepine]
- NOAEL ([5]; both sexes, rat, in vivo, rats, 13-week and 6-month studies): 5 mg/kg/day
- Single dose that caused death ([5]; rats): 1000 mg/kg
- Exposure multiple relative to human exposure at 10 mg BID ([5]; females): 2.8
- Exposure multiple relative to human exposure at 10 mg BID ([5]; males): 1.2
- Exposure multiple of human exposure at 10 mg BID ([5]; females): 34 times
- Exposure multiple of human exposure at 10 mg BID ([5]; males): 22 times
- Doses with no mortality ([5]; rats, 10-day repeat dose studies): ≤ 150 mg/kg/day
- Doses with modest increases in kidney weights ([5]; rats, 10-day, 28-day and 3-month studies): ≥ 50 mg/kg
- AUC24 hr ([2]; ESRD): 1860 ng·h/mL
- Cmax ([2]; ESRD): 87.6 ng/mL
- t1/2 ([2]; ESRD): 24.8 h
- AUC24 hr ([2]; Mild): 1270 ng·h/mL
- Cmax ([2]; Mild): 64.1 ng/mL
- t1/2 ([2]; Mild): 12.0 h
- AUC24 hr ([2]; Moderate): 935 ng·h/mL
- Cmax ([2]; Moderate): 49.5 ng/mL
- t1/2 ([2]; Moderate): 11.5 h
- AUC24 hr ([2]; Normal): 942 ng·h/mL
- Cmax ([2]; Normal): 55.8 ng/mL
- t1/2 ([2]; Normal): 8.28 h
- AUC24 hr ([2]; Severe): 835 ng·h/mL
- Cmax ([2]; Severe): 40.9 ng/mL
- t1/2 ([2]; Severe): 12.8 h
